Laboratory results taken from patent US7214470B2, “Fluorine-containing ethylenic monomer having hydroxyl group or fluoroalkyl carbonyl group and fluorine-containing polymer prepared by polymerization of same” (priority 2001, dated 2007).

Test: Measurement of pKa by titration with NaOH solution in water/acetone
Type: physicochemical
Details: for Measured pKa Exp. Ex. 2: monomer, titration with NaOH solution in water/acetone, room temperature
Description: In a solution of water/acetone of 10/15 ml was put 0.7865 g of CH2═CHCH2C(CF3)2OH, followed by stirring at room temperature. After it was confirmed that the solution became homogeneous, titration was carried out with a 0.2 mol/liter NaOH solution. A titration curve was obtained by adding a NaOH solution dropwise in increments of 0.15 ml and recording a pH value at every addition. An equivalence point was determined by an inflection point (maximum differential value of titration curve=dpH/dml) of the titration curve. In this case, the equivalence point was 14.5 ml. […] From a titration curve of water/acetone solution and aqueous solution which had been measured previously as a blank solution, a difference in a pH value derived from an electric potential difference between the solutions at titration of 7.25 ml was 1.29.
In case of titration of 1.0865 g of CH2═CHCH2C(CF3)2OH by the same procedures as above, an equivalence point was 20.15 ml and a half of equivalence point was 10.08 ml. A pH value at a half of the equivalence point was 10.78.
When the same procedures as above were carried out except that about 0.05 mol/liter NaOH solution was used as a titration solution, an equivalence point of 0.115 g of CH2═CHCH2C(CF3)2OH was 8.00 ml and a half of equivalence point was 4.00 ml. A pH value at this time was 10.92.
From those experiments carried out three times, a pKa value of CH2═CHCH2C(CF3)2OH was determined as 9.6.
With respect to the various fluorine-containing ethylenic monomers having OH group shown in Table 1, a pKa value was measured by the same procedures as above.

Compound | pKa | Measured pKa Exp. Ex. 2 | pKa value (single titration) (0.115 g, about 0.05 mol/liter NaOH) | pKa value (single titration) (0.7865 g, 0.2 mol/liter NaOH, water/acetone 10/15 ml) | pKa value (single titration) (1.0865 g, 0.2 mol/liter NaOH)
C=C(F)C(O)(C(F)(F)F)C(F)(F)F [Ex. 4, 1,1-bistrifluoromethyl-2-fluoro-2-propene-1-ol] | 8 | – | – | – | –
OC(C(F)=C(F)F)(C(F)(F)F)C(F)(F)F [Prep. Ex. 1, 1,1-bistrifluoromethyl-2,3,3-trifluoro-2-propene-1-ol] | 7.1 | – | – | – | –
C=C(F)C(F)(F)OC(F)(C(F)(F)F)C(F)(F)OC(F)(CO)C(F)(F)F (stereo not shown) [perfluoro-(1,1,1,9,9-tetrahydro-2,5-bistrifluoromethyl-3,6-dioxanonenol)] | – | 12.6 | – | – | –
CH2═CHCH2C(CF3)2OH | – | 9.6 | 9.54 | 9.69 | 9.64
